Source: patent publication US20220088102A1, “CROTON LECHLERI COMPOSITIONS AND THEIR USE IN THE TREATMENT OF CYSTIC FIBROSIS” (priority 2020, published 2022)
≈ marks a conversion by molar mass, not a printed value. Read-outs that look alike come from different tables or passages of the source.

Key:
[1] = Log P analysis (partition coefficient, water and n-Octanol)
Description: (§1) All reference to skin includes references to epithelial skin and epithelial layer of the lungs, nose, mouth and throat. IVPT is a flux measurement that is common to those skilled in the art to evaluate topical drugs inclusive to topical delivery to the lungs, nose, mouth and throat.
Log P is an assessment of a molecule's lipophilicity, indicating how readily an analyte can partition between aqueous and organic phases. […] To reach high systemic levels, a topical drug must be permeable enough, which is defined as lipophilic enough, to partition into the lipid bilayer of the skin, but, not so lipophilic that once it is in the skin bilayer it will stay sequestered there. Lipophilicity plays a major role in determining where drugs are distributed within the body after absorption into tissues and, as a consequence, in how rapidly they are metabolized and excreted.
The Log P value is a constant defined in the following manner: Log P=log 10 (Partition Coefficient) Partition Coefficient, P=[organic]/[aqueous] Where [ ] indicates the concentration of solute in the organic and aqueous partition. […] Although log P is a constant, its value is dependent on the choice of the organic partitioning solvent and, to a lesser degree, on the conditions of measurement.

DNA of the cells = conditions: Chen 1994, cited from earlier work; for healing effects: in the Ecuadorian sap
[2] = In vitro Permeation Test (IVPT), Franz diffusion cell, Strat-M membranes
Description: as §1

[3] = system: methicillin-resistant Staphylococcus aureus (MRSA) strains; experiment: In vitro MIC and MBC assay, strain panel (Example 3); format: cell-based; conditions: for MBC (% relative to amount in AB-101) / MIC (% relative to amount in AB-101): MRSA; for MIC (% relative to amount in AB-101): 50% = 10 μg/mL taspine; for MIC: MRSA (Table 13)
Description: (§2) Measures included the minimum inhibitory concentration (MIC) which is the lowest concentration of AB-101 that prevents visible growth of the bacterium or pathogen, and minimum bactericidal concentration (MBC) which is the lowest concentration of an antibacterial agent required to kill a bacterium.

[4] = system: methicillin-susceptible Staphylococcus aureus (MSSA) strains; experiment: as above; format: cell-based; conditions: for MIC (% relative to amount in AB-101): 50% = 10 μg/mL taspine
Description: as §2

wound healing = conditions: in vivo in rats, Pieters et al 1995; cited from earlier work
[5] = component of AB-101, 100%, Batch 0
[6] = component of AB-101, 100%, Batch 1
[7] = component of AB-101, 100%, Batch 2
[8] = component of AB-101, 100%, Batch X
[9] = component of AB-101 Lyophilized & Resuspended, Batch 0
[10] = component of AB-101 Lyophilized & Resuspended, Batch 1
[11] = component of AB-101 Lyophilized & Resuspended, Batch 2
[12] = component of AB-101 Lyophilized & Resuspended, Batch X
[13] = component permeating from AB-101 100% Lot 1
[14] = component permeating from AB-101 100% Lot X
[15] = highest concentration tested 50% relative to AB-101 = 10 μg/mL taspine
[16] = strain 1674606, MupirocinR, MSSA
[17] = strain 1674608, MupirocinR, MSSA
[18] = strain CDC 461, MupirocinS, MSSA
[19] = strain CDC 462, MupirocinS, MSSA
[20] = strain CDC 463, MupirocinS, MSSA
[21] = strain CDC 464, MupirocinS, MSSA
[22] = strain CDC 484, MupirocinS, MSSA
[23] = strain CDC 485, MupirocinS, MSSA
[24] = strain ATCC 29213, QC control (Table 13)
[25] = strain CDC 461, MupirocinS, MSSA (Table 13)
[26] = strain CDC 463, MupirocinS, MSSA (Table 13)

Oc1cc(O)c2c(c1)O[C@H](c1cc(O)c(O)c(O)c1)[C@H](O)C2 [Epigallocatcchin]
LogP [1, 5]: −0.79
LogP [1, 6]: 0.27
LogP [1, 7]: 0.86
LogP [1, 8]: 1.82
LogP [1, 9]: 1.20
LogP [1, 10]: −0.11
LogP [1, 11]: −1.71
LogP [1, 12]: −0.55

COc1ccc2c(=O)oc3c(OC)cc(CCN(C)C)c4c(=O)oc1c2c34 [Taspin]
LogP [1, 5]: −1.15
LogP [1, 6]: −1.76
LogP [1, 7]: −0.90
LogP [1, 8]: −0.31
LogP [1, 9]: −1.06
LogP [1, 10]: −0.94
LogP [1, 11]: −1.71
LogP [1, 12]: −0.07

catechin
effect on cell proliferation (DNA of the cells): showed little effect

Oc1cc(O)c2c(c1)O[C@H](c1cc(O)c(O)c(O)c1)[C@H](O)C2 [Epigallocatechin, epigallocatechin]
effect on cell proliferation (DNA of the cells): slightly stimulating to cell proliferation
Flux (J) [2, 13]: 503.51 ug/cm^2/hr
Flux (J) [2, 14]: 57.09 ug/cm^2/hr

epicatechin
effect on cell proliferation (DNA of the cells): showed little effect

COc1ccc2c(=O)oc3c(OC)cc(CCN(C)C)c4c(=O)oc1c2c34 [Taspine, taspine]
activity as evaluated by this invitro test method (MIC, MBC) [3, 15]: does not have activity
MBC (% relative to amount in AB-101) ([3]; strain 1674607, MupirocinR): >50 % relative to amount in AB-101
MIC (% relative to amount in AB-101) ([3]; strain 1674607, MupirocinR): >50 % relative to amount in AB-101
MBC (% relative to amount in AB-101) ([3]; strain 1674611, MupirocinR): >50 % relative to amount in AB-101
MIC (% relative to amount in AB-101) ([3]; strain 1674611, MupirocinR): >50 % relative to amount in AB-101
MBC (% relative to amount in AB-101) ([3]; strain CDC 218, MupirocinR): >50 % relative to amount in AB-101
MIC (% relative to amount in AB-101) ([3]; strain CDC 218, MupirocinR): >50 % relative to amount in AB-101
MBC (% relative to amount in AB-101) ([3]; strain CDC 220, MupirocinS): >50 % relative to amount in AB-101
MIC (% relative to amount in AB-101) ([3]; strain CDC 220, MupirocinS): >50 % relative to amount in AB-101
MBC (% relative to amount in AB-101) ([3]; strain CDC 224, MupirocinR): >50 % relative to amount in AB-101
MIC (% relative to amount in AB-101) ([3]; strain CDC 224, MupirocinR): >50 % relative to amount in AB-101
MBC (% relative to amount in AB-101) ([3]; strain CDC 227, MupirocinS): >50 % relative to amount in AB-101
MIC (% relative to amount in AB-101) ([3]; strain CDC 227, MupirocinS): >50 % relative to amount in AB-101
MBC (% relative to amount in AB-101) ([3]; strain CDC 228, MupirocinR): >50 % relative to amount in AB-101
MIC (% relative to amount in AB-101) ([3]; strain CDC 228, MupirocinR): >50 % relative to amount in AB-101
MBC (% relative to amount in AB-101) ([3]; strain CDC 480, MupirocinS): >50 % relative to amount in AB-101
MIC (% relative to amount in AB-101) ([3]; strain CDC 480, MupirocinS): >50 % relative to amount in AB-101
MBC (% relative to amount in AB-101) ([3]; strain CDC 481, MupirocinS): >50 % relative to amount in AB-101
MIC (% relative to amount in AB-101) ([3]; strain CDC 481, MupirocinS): >50 % relative to amount in AB-101
MBC (% relative to amount in AB-101) ([3]; strain CDC 482, MupirocinS): >50 % relative to amount in AB-101
MIC (% relative to amount in AB-101) ([3]; strain CDC 482, MupirocinS): >50 % relative to amount in AB-101
MBC (% relative to amount in AB-101) ([3]; strain CDC 483, MupirocinS): >50 % relative to amount in AB-101
MIC (% relative to amount in AB-101) ([3]; strain CDC 483, MupirocinS): >50 % relative to amount in AB-101
activity as evaluated by this invitro test method (MIC, MBC) [4, 15]: does not have activity
MBC (% relative to amount in AB-101) [4, 16]: >50 % relative to amount in AB-101
MIC (% relative to amount in AB-101) [4, 16]: >50 % relative to amount in AB-101
MBC (% relative to amount in AB-101) [4, 17]: >50 % relative to amount in AB-101
MIC (% relative to amount in AB-101) [4, 17]: >50 % relative to amount in AB-101
MBC (% relative to amount in AB-101) ([4]; strain ATCC 29213, QC control): >50 % relative to amount in AB-101
MIC (% relative to amount in AB-101) ([4]; strain ATCC 29213, QC control): >50 % relative to amount in AB-101
MBC (% relative to amount in AB-101) [4, 18]: >50 % relative to amount in AB-101
MIC (% relative to amount in AB-101) [4, 18]: >50 % relative to amount in AB-101
MBC (% relative to amount in AB-101) [4, 19]: >50 % relative to amount in AB-101
MIC (% relative to amount in AB-101) [4, 19]: >50 % relative to amount in AB-101
MBC (% relative to amount in AB-101) [4, 20]: >50 % relative to amount in AB-101
MIC (% relative to amount in AB-101) [4, 20]: >50 % relative to amount in AB-101
MBC (% relative to amount in AB-101) [4, 21]: >50 % relative to amount in AB-101
MIC (% relative to amount in AB-101) [4, 21]: >50 % relative to amount in AB-101
MBC (% relative to amount in AB-101) [4, 22]: >50 % relative to amount in AB-101
MIC (% relative to amount in AB-101) [4, 22]: >50 % relative to amount in AB-101
MBC (% relative to amount in AB-101) [4, 23]: >50 % relative to amount in AB-101
MIC (% relative to amount in AB-101) [4, 23]: >50 % relative to amount in AB-101
healing effects (DNA of the cells): showed little healing effects

COc1ccc([C@H]2Oc3c(OC)cc(CCCO)cc3[C@@H]2CO)cc1OC [dimethylcedrusin, 3′,4-0-dimethylcedrusin]
healing effects (DNA of the cells): showed little healing effects
wound healing activity (wound healing): improved wound healing in vivo

C/C(=C\C(=O)OCCCCCCCCC(=O)O)C[C@@H]1OC[C@H](C[C@@H]2O[C@H]2[C@@H](C)[C@H](C)O)[C@@H](O)[C@H]1O [Mupirocin]
MIC ([3]; strain CDC 227, MupirocinS): ≤0.25 to 0.5 pg/mL
MIC ([4]; Staphylococcus aureus, MSSA, strain 1674606, MupirocinR, MSSA, read-out: MIC): > 256000 ng/mL
MIC ([4]; Staphylococcus aureus, MSSA, strain 1674608, MupirocinR, MSSA, read-out: MIC): > 256000 ng/mL
MIC ([4]; Staphylococcus aureus, MSSA, strain CDC 463, MupirocinS, MSSA, read-out: MIC): 250 to 500 ng/mL (≈ 499 to 999 nM)
MIC ([4]; Staphylococcus aureus, MSSA, strain CDC 484, MupirocinS, MSSA, read-out: MIC): ≤ 250 ng/mL
MIC ([4]; Staphylococcus aureus, MSSA, strain CDC 485, MupirocinS, MSSA, read-out: MIC): ≤ 250 ng/mL
MIC [4, 24]: ≤0.00025 to 0.0005 ng/mL
MIC [4, 25]: ≤0.00025 to 0.001 ng/mL
MIC [4, 26]: ≤0.00025 to 0.0005 ng/mL

Oc1cc(O)c2c(c1)O[C@H](c1cc(O)c(O)c(O)c1)[C@@H](O)C2 [Gallocatechin, gallocatechin]
effect on cell proliferation (DNA of the cells): slightly stimulating to cell proliferation
Flux (J) [2, 13]: 18.25 ug/cm^2/hr
Flux (J) [2, 14]: 4.33 ug/cm^2/hr

COc1cccc(OC)c1C(=O)N[C@@H]1C(=O)N2[C@@H]1SC(C)(C)[C@@H]2C(=O)O [Methicillin]
MIC ([3]; strain CDC 480, MupirocinS): 32 to 64 pg/mL
MIC ([3]; strain CDC 481, MupirocinS): 16 to 32 pg/mL
MIC ([3]; strain CDC 482, MupirocinS): 8 to 32 pg/mL
MIC ([4]; strain 1674606, MupirocinR, MSSA (Table 13)): 0.002 to 0.008 ng/mL
MIC ([4]; strain 1674608, MupirocinR, MSSA (Table 13)): 0.002 to 0.004 ng/mL
MIC [4, 24]: 0.001 to 0.002 ng/mL
MIC [4, 25]: 0.004 to 0.008 ng/mL
MIC [4, 26]: 0.008 to 0.016 ng/mL
MIC ([4]; strain CDC 485, MupirocinS, MSSA (Table 13)): 0.002 to 0.004 ng/mL
